Assay results reported in paper PMC3306180 (Journal of Medicinal Chemistry, 2012).
Where two headings read alike, the source gives them in different places.

Legend:
T. gondii = T. gondii cell proliferation; assay type: cell-based, Toxoplasma gondii
HL-60 (neutrophil) cells = test: Human cell growth inhibition assay, HL-60; conditions: concentrations up to 10 μM
[1] = system: CRL-8155 (lymphocytic) cells; test: Human cell growth inhibition assay, CRL-8155; conditions: concentrations up to 10 μM
human kinases = assay type: biochemical
[2] = generally observed, human kinase panel of Table 4

Row | Compound | block of T. gondii cell invasion/proliferation (T. gondii) | inhibition of cell growth, HL-60 (HL-60 (neutrophil) cells) | inhibition of cell growth, CRL-8155 [1] | differences between IC50 values for TgCDPK1 over human kinases (human kinases; [2]) | differences between IC50 values for TgCDPK1 over human kinases (human kinases)
1 | CC(C)(C)n1ncc2c(N)ncnc21.Cl [Compound 1b] | do not block T. gondii cell invasion/proliferation | – | – | – | –
2 | Cl.Nc1ncnc2c1cnn2CC1CCNCC1 [Compound 1n] | do not block T. gondii cell invasion/proliferation | – | – | – | –
3 | COc1ccc2cc(-c3nn(C(C)C)c4ncnc(N)c34)ccc2c1.Cl [Compound 14a] | – | no inhibition of cell growth | no inhibition of cell growth | – | –
4 | COc1ccc2cc(-c3nn(CC4CCNCC4)c4ncnc(N)c34)ccc2c1.Cl [Compound 14n] | – | no inhibition of cell growth | no inhibition of cell growth | > 1000 fold | –
5 | CCOc1ccc2cc(-c3nn(C4CCN(C)CC4)c4ncnc(N)c34)ccc2c1.Cl [Compound 15h] | – | no inhibition of cell growth | no inhibition of cell growth | > 1000 fold | –
6 | CCOc1ccc2cc(-c3nn(CC4CCNCC4)c4ncnc(N)c34)ccc2c1.Cl [Compound 15n] | – | no inhibition of cell growth | no inhibition of cell growth | – | > 1000 fold
7 | CCOc1ccc2cc(-c3nn(CC4CCN(C)CC4)c4ncnc(N)c34)ccc2c1.Cl [Compound 15o] | – | – | – | > 1000 fold | –
8 | CCOc1ccc2cc(-c3nn(CC4CCNCC4)c4ncnc(N)c34)ccc2n1.Cl [Compound 16n] | – | no inhibition of cell growth | no inhibition of cell growth | > 1000 fold | –
